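Grown in 96-well plates, cells were treated for 48 hours with each compound at five concentrations. Insufficient inhibition: endpoint recorded as highest concentration tested. GI50 is the concentration that inhibits growth by half. TGI: total growth inhibition.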
Experiments:
Experiment in all cases: inhibition of tumour cell growth, NCI panel, 48 h
LOX IMVI melanoma = tested on: LOX IMVI melanoma
HCT-116 colon = tested on: HCT-116 colon
SF-295 CNS = tested on: SF-295 CNS
MCF7 breast = tested on: MCF7 breast
TK-10 renal = tested on: TK-10 renal
SK-MEL-28 melanoma = tested on: SK-MEL-28 melanoma
EKVX NSCLC = tested on: EKVX NSCLC
SNB-19 CNS = tested on: SNB-19 CNS
U251 CNS = tested on: U251 CNS
HL-60(TB) leukemia = tested on: HL-60(TB) leukemia
NCI-H226 lung = tested on: NCI-H226 lung
KM12 colon = tested on: KM12 colon
RXF 393 renal = tested on: RXF 393 renal
UACC-62 melanoma = tested on: UACC-62 melanoma
PC-3 prostate = tested on: PC-3 prostate
COLO 205 colon = tested on: COLO 205 colon
HT29 colon = tested on: HT29 colon
NCI-H522 lung = tested on: NCI-H522 lung
IGROV1 ovarian = tested on: IGROV1 ovarian
DU-145 prostate = tested on: DU-145 prostate
MDA-MB-435 = tested on: MDA-MB-435
SNB-75 CNS = tested on: SNB-75 CNS
NCI-H460 lung = tested on: NCI-H460 lung
HCC-2998 colon = tested on: HCC-2998 colon
NCI/ADR-RES ovarian = tested on: NCI/ADR-RES ovarian
SW-620 colon = tested on: SW-620 colon
SR leukemia = tested on: SR leukemia
HCT-15 colon = tested on: HCT-15 colon
BT-549 breast = tested on: BT-549 breast

Structure (SMILES): CCCn1cnc2c(c1=N)C(c1ccc(F)cc1)c1sc3c(C)cccc3c1O2 (stereo not drawn)
- GI50 (LOX IMVI melanoma): 0.962 µM
- TGI (LOX IMVI melanoma): 13.2 µM
- GI50 (HCT-116 colon): 0.467 µM
- TGI (HCT-116 colon): 11.8 µM
- GI50 (SF-295 CNS): 0.581 µM
- TGI (SF-295 CNS): 11 µM
- GI50 (MCF7 breast): 0.351 µM
- TGI (MCF7 breast): 13.8 µM
- GI50 (TK-10 renal): 16.1 µM
- TGI (TK-10 renal): 61.5 µM
- GI50 (SK-MEL-28 melanoma): 5.79 µM
- TGI (SK-MEL-28 melanoma): 22.7 µM
- GI50 (EKVX NSCLC): 3.7 µM
- TGI (EKVX NSCLC): 27.6 µM
- GI50 (SNB-19 CNS): 2.4 µM
- TGI (SNB-19 CNS): 18.4 µM
- GI50 (U251 CNS): 2.07 µM
- TGI (U251 CNS): 18.1 µM
- GI50 (HL-60(TB) leukemia): 1.48 µM
- TGI (HL-60(TB) leukemia): 7.87 µM
- GI50 (NCI-H226 lung): 2.87 µM
- TGI (NCI-H226 lung): 15.1 µM
- GI50 (KM12 colon): 1.63 µM
- TGI (KM12 colon): > 36.3 µM
- GI50 (RXF 393 renal): 0.227 µM
- TGI (RXF 393 renal): 0.741 µM
- GI50 (UACC-62 melanoma): 0.443 µM
- TGI (UACC-62 melanoma): 13.8 µM
- GI50 (PC-3 prostate): 0.638 µM
- TGI (PC-3 prostate): 15.2 µM
- GI50 (COLO 205 colon): 2.6 µM
- TGI (COLO 205 colon): 8.22 µM
- GI50 (HT29 colon): 3.16 µM
- TGI (HT29 colon): 12.8 µM
- GI50 (NCI-H522 lung): 0.4 µM
- TGI (NCI-H522 lung): 12.1 µM
- GI50 (IGROV1 ovarian): 1.23 µM
- TGI (IGROV1 ovarian): 13.1 µM
- GI50 (DU-145 prostate): 3.34 µM
- TGI (DU-145 prostate): 29.5 µM
- GI50 (MDA-MB-435): 0.328 µM
- TGI (MDA-MB-435): 1.27 µM
- GI50 (SNB-75 CNS): 0.321 µM
- TGI (SNB-75 CNS): 13.8 µM
- GI50 (NCI-H460 lung): 1.05 µM
- TGI (NCI-H460 lung): 11.5 µM
- GI50 (HCC-2998 colon): 2.01 µM
- TGI (HCC-2998 colon): 6.08 µM
- GI50 (NCI/ADR-RES ovarian): 0.425 µM
- TGI (NCI/ADR-RES ovarian): 6.99 µM
- GI50 (SW-620 colon): 1.32 µM
- TGI (SW-620 colon): 18.8 µM
- GI50 (SR leukemia): 0.648 µM
- TGI (SR leukemia): 15.6 µM
- GI50 (HCT-15 colon): 1.05 µM
- TGI (HCT-15 colon): 12.7 µM
- GI50 (BT-549 breast): 5.84 µM
- TGI (BT-549 breast): 22.8 µM
